Key:
Mutant FLT-3 (ITD) = target: T1, Mutant FLT-3 (ITD) (Homo sapiens, UniProt P36888, INS600HVDFREYEYD); test: FLT-3 phosphorylation by immunoprecipitation/Western in MV411 cells; type: cell-based; conditions: for Mutant FLT-3 (inhibition of phosphorylation): MV411 cells, IP/Western; as to Mutant FLT-3 (inhibition of phosphorylation): key: +++: very strong inhibition; ++: inhibition; +/−: weak inhibition; −: no inhibition
T1 sequence (P36888 27-993 INS600HVDFREYEYD): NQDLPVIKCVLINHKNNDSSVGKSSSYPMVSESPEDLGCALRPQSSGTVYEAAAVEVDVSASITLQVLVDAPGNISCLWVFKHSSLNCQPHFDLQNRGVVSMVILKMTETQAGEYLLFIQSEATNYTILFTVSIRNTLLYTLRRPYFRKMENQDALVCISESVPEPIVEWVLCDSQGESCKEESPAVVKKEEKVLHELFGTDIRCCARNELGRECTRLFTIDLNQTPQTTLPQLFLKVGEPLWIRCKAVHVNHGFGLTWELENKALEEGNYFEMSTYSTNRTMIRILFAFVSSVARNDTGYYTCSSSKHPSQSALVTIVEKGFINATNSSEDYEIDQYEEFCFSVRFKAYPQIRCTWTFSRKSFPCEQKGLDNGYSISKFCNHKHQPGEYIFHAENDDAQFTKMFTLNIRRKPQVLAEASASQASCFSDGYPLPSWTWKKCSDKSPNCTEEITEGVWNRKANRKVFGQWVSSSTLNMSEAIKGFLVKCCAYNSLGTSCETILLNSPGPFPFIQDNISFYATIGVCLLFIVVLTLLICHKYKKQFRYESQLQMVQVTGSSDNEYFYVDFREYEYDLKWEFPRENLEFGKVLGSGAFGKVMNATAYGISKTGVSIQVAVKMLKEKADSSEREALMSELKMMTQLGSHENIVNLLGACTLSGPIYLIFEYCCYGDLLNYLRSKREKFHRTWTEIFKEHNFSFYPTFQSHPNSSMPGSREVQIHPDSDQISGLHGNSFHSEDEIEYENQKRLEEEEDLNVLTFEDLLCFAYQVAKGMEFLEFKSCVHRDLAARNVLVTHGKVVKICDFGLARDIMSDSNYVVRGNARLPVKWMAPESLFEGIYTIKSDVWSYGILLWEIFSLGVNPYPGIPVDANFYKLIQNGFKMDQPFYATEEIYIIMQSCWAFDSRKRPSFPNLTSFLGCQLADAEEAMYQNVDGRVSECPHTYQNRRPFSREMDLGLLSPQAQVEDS
Description: FLT-3 was immunoprecipitated from lysates with a commercially available antibody. Proteins were separated by SDS-polyacrylamide gel electrophoresis, transferred to membranes analyzed by Western blotting for phosphotyrosine and subsequently for total FLT-3 protein as control.
The comparative example is a known protein kinase inhibitor having the following formula: [drawing 18]
(§1) Immunoprecipitation and Western Blot (IP/W) analysis: Cells were lysed in lysis buffer (20 mM Tris, pH 7.5; 137 mM NaCl; 10% glycerol; 1% NP-40; 0.1% SDS; 2 mM EDTA) containing protease and phosphatase inhibitors (50 mM sodium fluoride, 1 mM sodium orthovanadate, 2 mM Pefabloc, […], […], […], 4 mM leupeptin, and 4 mM pepstatin A). Equivalent amounts of protein were separated by SDS-PAGE, then transferred to nitrocellulose membranes. For analysis of FLT3 phosphorylation, equivalent amounts of protein from each sample were immunoprecipitated overnight at 4*C. with an agarose-conjugated anti-FLT3 antibody (Santa Cruz Biotechnology, Santa Cruz, Calif.). Immune complexes were washed (150 mM NaCl, 1.5 mM MgCl2, 50 mM HEPES, pH 7.5, 10% glycerol, 0.1% Triton X-100, and 1 mM EGTA) and following SDS-PAGE, proteins were transferred to nitrocellulose membranes. Membranes were probed with an anti-phosphotyrosine antibody (Upstate, Lake Placid, N.Y. or Transduction Laboratories, Lexington, Ky.) and then stripped with Restore Western Blot Stripping Buffer (Pierce, Rockford, Ill.). Membranes were reprobed with an anti-FLT3 antibody (Santa Cruz Biotechnology). Stat5 antibodies for immunprecipitation and Western blot analysis were from Upstate Biotechnology and Transduction labs respectively.

Wild-type FLT-3 = target: T2, Wild-type FLT-3 (Homo sapiens, UniProt P36888); test: FLT-3 phosphorylation by immunoprecipitation/Western in RS411 cells; type: cell-based; conditions: for Wild-type FLT-3 (inhibition of phosphorylation): RS411 cells, IP/Western; as to Wild-type FLT-3 (inhibition of phosphorylation): key: +++: very strong inhibition; ++: inhibition; +/−: weak inhibition; −: no inhibition
T2 construct: host or cells: RS411 (RS4;11)
T2 sequence (P36888 27-993): T1 sequence (P36888 27-993 INS600HVDFREYEYD)
Description: FLT-3 was immunoprecipitated from lysates with a commercially available antibody. Proteins were separated by SDS-polyacrylamide gel electrophoresis, transferred to membranes analyzed by Western blotting for phosphotyrosine and subsequently for total FLT-3 protein as control. […]
as §1

Row | Mutant FLT-3 (inhibition of phosphorylation) (Mutant FLT-3 (ITD)) | inhibition of mutant FLT-3 phosphorylation (Mutant FLT-3 (ITD); in words) | inhibition of wild-type FLT-3 phosphorylation (Wild-type FLT-3; in words) | Structure (SMILES) | Wild-type FLT-3 (inhibition of phosphorylation) (Wild-type FLT-3)
1 | − | no inhibition | no inhibition | Cc1[nH]c(/C=C2\C(=O)Nc3ccccc32)c(C)c1CCC(=O)O [Comparative, reference compound] | −
2 |  |  |  | Cc1[nH]c(C=C2C(=O)Nc3ccc(F)cc32)c(C)c1C(=O)NCCN1CCOCC1 [Compound 3, 5-(5-Fluoro-2-oxo-1,2-dihydro-indol-3-ylidenemethyl)-2,4-dimethyl-1H-pyrrole-3-carboxylic acid(2-morpholin-4-yl-ethyl)-amide] | +/−
3 |  |  |  | Cc1[nH]c(C=C2C(=O)Nc3ccc(Cl)cc32)c(C)c1C(=O)NCC(O)CN1CCOCC1 (stereo not drawn) [Compound 7, 5-(5-Chloro-2-oxo-1,2-dihydro-indol-3-ylidenemethyl)-2,4-dimethyl-1H-pyrrole-3-carboxylic acid(2-hydroxy-3-morpholin-4-yl-propyl)-amide] | ++
4 |  |  |  | CCNCCNC(=O)c1c(C)[nH]c(C=C2C(=O)Nc3ccc(F)cc32)c1C [Compound 8, 5-(5-Fluoro-2-oxo-1,2-dihydro-indol-3-ylidenemethyl)-2,4-dimethyl-1H-pyrrole-3-carboxylic acid(2-ethylamino-ethyl)-amide] | ++
5 |  |  |  | Cc1[nH]c(/C=C2\C(=O)Nc3ccc(F)cc32)c(C)c1C(=O)N1CCC(N2CCOCC2)CC1 [Compound 9, 3-[3,5-dimethyl-4-(4-morpholin-4-yl-piperidine-1-carbonyl)-1H-pyrrol-2-methylene]-5-fluoro-1,3-dihydro-indol-2-one] | ++
6 | − |  |  | Cc1cc(CCC(=O)O)c(C=C2C(=O)Nc3ccccc32)[nH]1 [Compound 10, 3-[5-methyl-2-(2-oxo-1,2-dihydro-indol-3-ylidenemethyl)-1H-pyrrol-3-yl]-propionic acid] | +/−

Row | Structure (SMILES) | Mutant FLT-3 (inhibition of phosphorylation) (Mutant FLT-3 (ITD)) | inhibition of mutant FLT-3 phosphorylation (Mutant FLT-3 (ITD); in words) | inhibition of wild-type FLT-3 phosphorylation (Wild-type FLT-3; in words) | Wild-type FLT-3 (inhibition of phosphorylation) (Wild-type FLT-3)
7 | Cc1[nH]c(C=C2C(=O)Nc3ccc(F)cc32)c(C)c1C(=O)NCCN1CCCC1 [Compound 2, 5-(5-Fluoro-2-oxo-1,2-dihydro-indol-3-ylidenemethyl)-2,4-dimethyl-1H-pyrrole-3-carboxylic acid(2-pyrrolidin-1-yl-ethyl)-amide] | ++ |  |  | ++

From patent US20030130280A1, “Treatment of acute myeloid leukemia with indolinone compounds” (SUGEN, Inc., priority 2001, published 2003)
